Laboratory results from US20260234141A1, “COMPOUNDS AND COMPOSITIONS USEFUL AS DEGRADERS OF MK2 KINASE” (Celgene Corporation, priority 2023, published 2026).

Key:
MK2 = target: T1, MK2 (Homo sapiens, UniProt P49137); assay: MK2 degradation assay in MK2 overexpressed HiBiT-tagged cell line; assay type: cell-based; conditions: cells stably expressing HiBiT-tagged MK2 (overexpressed), overnight incubation, read-out: HiBiT MK2 OE EC50
T1 construct: expressed in transfected cells
Experimental: A compound was dispensed into a white 384-well tissue-culture treated plate using an acoustic liquid handler. Dilutions were based on a 25 μL assay volume in duplicate 10 point 3-fold serial dilutions starting with a 10 μM dose. Negative control wells containing only 0.2% DMSO were also included to calculate 100% signal. All wells were backfilled to a final DMSO concentration of 0.2% to ensure DMSO uniformity across wells. Cells stably expressing HiBiT-tagged protein of interest were then washed, trypsinized, and counted.
These cells were then resuspended in fresh medium to give the proper concentration. This was done so that when cells were plated at a 25 μL seeding volume the assay would be conducted within the linear range from optimization of cell-based HiBiT assay. Following the above procedure, 25 μL of cells expressing HiBiT-tagged protein of interest were dispensed per well. Cells were then seeded into the 384-well plate that was pre-spotted with compounds. The resulting cells were incubated overnight at 37° C./5% CO2.
The 384-well plates were then removed from the incubator and left at room temperature for 30 min. The Nano-Glo HiBiT Lytic Detection Reagent was prepared according to manufacturer's instructions. 25 μL of Nano-Glo HiBiT Lytic Detection Reagent were added per well of a 384-well plate. The resulting plates were incubates for 30 min at room temperature. Luminescence signal was then read using a plate reader.
All luminescence values were normalized to the DMSO control wells. The average value of the DMSO control wells was set to equal 100% of the relative HiBiT-tagged target protein levels.
The luminescence values were plotted using a graphing software. Compound concentration was plotted on the x-axis and the corresponding relative protein of interest levels on the y-axis. Graphing software was used to determine the EC50 value (the half-maximum effective concentration) of a compound for the degradation of the HiBiT-tagged substrate. The software used a four-parameter logistic model (sigmoidal dose-response model) (FIT=(A+{(B−A)/1+[(C/x)^D]})) where C was the inflection point (EC50), D was the […], and A and B were the low and high limits of the fit, respectively) to calculate the EC50. The Ymin was calculated by determining the lowest percentage of target protein remaining following compound treatment.

[1] = target: T2, p38a activated, mitogen-activated protein kinase-activated protein kinase 2 (MAPKAP-K2 or MK2) enzyme (Homo sapiens, UniProt P49137); assay: MK2 OMNIA biochemical assay (AssayQuant continuous-read kinase assay); conditions: [MK-2]=0.05 nM, [ATP]=100 μM, [AQT0425]=10 μM
T2 construct: purchased Invitrogen PV3317
Experimental: The protocol below describes a continuous-read kinase assay optimized to measure potency of compounds against p38a activated, mitogen-activated protein kinase-activated protein kinase 2 (MAPKAP-K2 or MK2) enzyme.
A 1.25× stock solution of MK2 (PV3317, from Invitrogen) and a 5× stock solution of ATP and Sox conjugated peptide substrate, AQT0425 (CSKS-AQT0425B, from AssayQuant Technologies), were prepared in 1× kinase reaction buffer consisting of 50 mM HEPES, pH 7.5, 0.01% Brij-35, 0.55 mM EGTA, 10 mM MgCl2 and 1 mM DTT.
10 μL of the ATP and substrate solution mix was added to a Corning (3574) 384-well, white, non-binding surface microtiter plate containing […] of serially diluted test compounds prepared in DMSO. The reactions were started with the addition of 40 μL of the enzyme solution and monitored every 71 seconds for 240 min at λex 360/λem 485 in a Synergy H4 plate reader from BioTek at room temperature.
The initial linear portions of the net progress curves were fit according to a linear equation to yield the slope and percentage of inhibition (% inhibition) at each compound concentration. The net progress curves obtained during the entirety of reactions were also fit according to an ascending single-exponential equation (Eq. 1) to yield Vobs values at each compound concentration. Plots of % Inhibition versus degrader concentrations were fit according to a dose-response equation (Eq. 2) to generate IC50 and Hill slope values while plots of Vobs versus degrader concentration were fit according to Equation 3 (Eq. 3) to generate apparent Kinact values using the GraphPad PRISM software.
where F is the fluorescence intensity from the plate reader, V0 is a constant reflecting the relationship between the instrument readout and product concentration, t is time, e is Euler's number, and Vobs is the observed inactivation rate constant.
where % Inhibition is percentage of inhibition, IC50 is half maximal inhibitory concentration, [I] is the degraders concentration, and n is the Hill slope.
where kobs is the observed inactivation rate constant, Kinact is the apparent inactivation rate constant, KI is the apparent inhibition constant, and [I] is the degrader concentration.

T2 sequence (P49137 whole entry): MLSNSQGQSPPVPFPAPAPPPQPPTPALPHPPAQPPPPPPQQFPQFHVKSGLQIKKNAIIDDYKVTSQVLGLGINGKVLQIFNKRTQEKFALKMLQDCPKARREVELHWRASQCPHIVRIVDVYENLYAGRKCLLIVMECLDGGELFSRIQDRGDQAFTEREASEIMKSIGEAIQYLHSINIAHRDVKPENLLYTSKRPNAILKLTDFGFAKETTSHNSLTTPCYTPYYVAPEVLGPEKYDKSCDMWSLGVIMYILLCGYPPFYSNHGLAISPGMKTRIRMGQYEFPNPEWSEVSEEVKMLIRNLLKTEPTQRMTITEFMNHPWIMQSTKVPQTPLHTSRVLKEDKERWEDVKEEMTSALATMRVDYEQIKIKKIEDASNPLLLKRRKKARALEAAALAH
T1 sequence (P49137 whole entry): as above

Compound | DC50 (MK2) [nM] | IC50 [1] [nM]
O=C1CCC(c2ccc(N3CCN(C[C@H]4CC[C@H](NC(=O)c5ccc(-c6cc(-c7cc8c([nH]7)CCNC8=O)ccn6)c(F)c5)CC4)CC3)cc2)C(=O)N1 (stereo partly drawn) [Example 1.6, N-(trans-4-((4-(4-(2,6-Dioxopiperidin-3-yl)phenyl)piperazin-1-yl)methyl)cyclohexyl)-3-fluoro-4-(4-(4-oxo-4,5,6,7-tetrahydro-1H-pyrrolo[3,2-c]pyridin-2-yl)pyridin-2-yl)benzamide] | 10 to 100 | 151 to 500
Cn1nc(C2CCC(=O)NC2=O)c2ccc(N3CCN(CC[C@H]4CC[C@H](NC(=O)c5ccc(-c6cc(-c7cc8c([nH]7)CCNC8=O)ccn6)c(F)c5)CC4)CC3)cc21 (stereo partly drawn) [Example 1.8, N-(trans-4-(2-(4-(3-(2,6-Dioxopiperidin-3-yl)-1-methyl-1H-indazol-6-yl)piperazin-1-yl)ethyl)cyclohexyl)-3-fluoro-4-(4-(4-oxo-4,5,6,7-tetrahydro-1H-pyrrolo[3,2-c]pyridin-2-yl)pyridin-2-yl)benzamide] | < 10 | 501 to 1000
Cn1nc(C2CCC(=O)NC2=O)c2ccc(N3CCN(C[C@H]4CC[C@H](NC(=O)c5ccc(-c6cc(-c7cc8c([nH]7)CCNC8=O)ccn6)c(F)c5)CC4)CC3)cc21 (stereo partly drawn) [Example 1.5, N-[trans-4-[[4-[3-(2,6-dioxo-3-piperidyl)-1-methyl-indazol-6-yl]piperazin-1-yl]methyl]cyclohexyl]-3-fluoro-4-[4-(4-oxo-1,5,6,7-tetrahydropyrrolo[3,2-c]pyridin-2-yl)-2-pyridyl]benzamide] | < 10 | < 150
O=C1CCC(c2cccc(N3CCN(C[C@H]4CC[C@H](NC(=O)c5ccc(-c6cc(-c7cc8c([nH]7)CCNC8=O)ccn6)c(F)c5)CC4)CC3)c2)C(=O)N1 (stereo partly drawn) [Example 1.7, N-(trans-4-((4-(3-(2,6-Dioxopiperidin-3-yl)phenyl)piperazin-1-yl)methyl)cyclohexyl)-3-fluoro-4-(4-(4-oxo-4,5,6,7-tetrahydro-1H-pyrrolo[3,2-c]pyridin-2-yl)pyridin-2-yl)benzamide] | 10 to 100 | 151 to 500
O=C1CCC(c2cccc(N3CCN(CC[C@H]4CC[C@H](NC(=O)c5ccc(-c6cc(-c7cc8c([nH]7)CCNC8=O)ccn6)c(F)c5)CC4)CC3)c2)C(=O)N1 (stereo partly drawn) [Example 1.9, N-(trans-4-(2-(4-(3-(2,6-Dioxopiperidin-3-yl)phenyl)piperazin-1-yl)ethyl)cyclohexyl)-3-fluoro-4-(4-(4-oxo-4,5,6,7-tetrahydro-1H-pyrrolo[3,2-c]pyridin-2-yl)pyridin-2-yl)benzamide] | 101 to 500 | 151 to 500

More lines, now with the values ahead:

DC50 (MK2) [nM] | IC50 [1] [nM] | Compound
10 to 100 | 501 to 1000 | O=C1CCC(c2ccc(N3CCN(CC[C@H]4CC[C@H](NC(=O)c5ccc(-c6cc(-c7cc8c([nH]7)CCNC8=O)ccn6)c(F)c5)CC4)CC3)cc2)C(=O)N1 (stereo partly drawn) [Example 1.10, N-(trans-4-(2-(4-(4-(2,6-Dioxopiperidin-3-yl)phenyl)piperazin-1-yl)ethyl)cyclohexyl)-3-fluoro-4-(4-(4-oxo-4,5,6,7-tetrahydro-1H-pyrrolo[3,2-c]pyridin-2-yl)pyridin-2-yl)benzamide]
101 to 500 | < 150 | Cn1nc(C2CCC(=O)NC2=O)c2ccc(N3CCN(CCN4CCN(c5cccc(-c6cc(-c7cc8c([nH]7)CCNC8=O)ccn6)c5)CC4)CC3)cc21 (stereo not drawn) [Example 1.11, 3-(1-Methyl-6-(4-(2-(4-(3-(4-(4-oxo-4,5,6,7-tetrahydro-1H-pyrrolo[3,2-c]pyridin-2-yl)pyridin-2-yl)phenyl)piperazin-1-yl)ethyl)piperazin-1-yl)-1H-indazol-3-yl)piperidine-2,6-dione]
> 500 | 151 to 500 | O=C1CCC(c2ccc(N3CCN(CCN4CCN(c5cccc(-c6cc(-c7cc8c([nH]7)CCNC8=O)ccn6)c5)CC4)CC3)cc2)C(=O)N1 (stereo not drawn) [Example 1.12, 3-(4-(4-(2-(4-(3-(4-(4-Oxo-4,5,6,7-tetrahydro-1H-pyrrolo[3,2-c]pyridin-2-yl)pyridin-2-yl)phenyl)piperazin-1-yl)ethyl)piperazin-1-yl)phenyl)piperidine-2,6-dione]
< 10 | 501 to 1000 | Cn1nc(C2CCC(=O)NC2=O)c2cccc(N3CCN(CCN4CCN(c5ccc(-c6cc(-c7cc8c([nH]7)CCNC8=O)ccn6)c(F)c5)CC4)CC3)c21 (stereo not drawn) [Example 1.13, 3-(7-(4-(2-(4-(3-Fluoro-4-(4-(4-oxo-4,5,6,7-tetrahydro-1H-pyrrolo[3,2-c]pyridin-2-yl)pyridin-2-yl)phenyl)piperazin-1-yl)ethyl)piperazin-1-yl)-1-methyl-1H-indazol-3-yl)piperidine-2,6-dione]
